Experimental data reported in ChEMBL document CHEMBL1159340, “Antibacterial diterpenes from Calceolaria pinifolia” (J Nat Prod, 2003).
Values after ≈ are worked out from the molar mass of the structure shown.

Tests used:
[1] = tested on: Bacillus subtilis; experiment: Inhibition of DNA synthesis in Bacillus subtilis assessed as [3H]thymidine uptake at 4 ug/mL by LKB Betaplate scintillation counter relative to control; type: functional; parameters: scale not given: the % may be the effect or the level left
[2] = tested on: Staphylococcus aureus; experiment: Antimicrobial activity against methicillin-susceptible Staphylococcus aureus 375 after 18 hrs by microbroth dilution method; type: functional
[3] = Toxicity in human RBC assessed as hemolysis at 64 ug/ml after 2 hrs; type: cell-based, Erythrocyte; conditions: red blood cells (RBC), read-out: Activity
[4] = Toxicity in human RBC assessed as hemolysis at 2 ug/ml after 2 hrs; type: cell-based, Erythrocyte; conditions: red blood cells (RBC), read-out: Activity
[5] = tested on: Bacillus subtilis; experiment: Inhibition of protein synthesis in Bacillus subtilis assessed as [3H]amino acid uptake at 8 ug/mL by LKB Betaplate scintillation counter relative to control; type: functional; parameters: scale not given: the % may be the effect or the level left
[6] = Toxicity in human RBC assessed as hemolysis at 1 ug/ml after 2 hrs; type: cell-based, Erythrocyte; conditions: red blood cells (RBC), read-out: Activity
[7] = tested on: Bacillus subtilis; experiment: Inhibition of RNA synthesis in Bacillus subtilis assessed as [3H]uridine uptake at 2 ug/mL by LKB Betaplate scintillation counter relative to control; type: functional; parameters: scale not given: the % may be the effect or the level left
[8] = tested on: Bacillus subtilis; experiment: Inhibition of RNA synthesis in Bacillus subtilis assessed as [3H]uridine uptake at 1 ug/mL by LKB Betaplate scintillation counter relative to control; type: functional; parameters: scale not given: the % may be the effect or the level left
[9] = tested on: Staphylococcus aureus; experiment: Antimicrobial activity against Staphylococcus aureus infected in CD1 mouse administered subcutaneously after 30 mins infection measured after 7 days; type: functional; conditions: sc
[10] = Toxicity in human RBC assessed as hemolysis at 16 ug/ml after 2 hrs; type: cell-based, Erythrocyte; conditions: red blood cells (RBC), read-out: Activity
[11] = Toxicity in human RBC assessed as hemolysis at 4 ug/ml after 2 hrs; type: cell-based, Erythrocyte; conditions: red blood cells (RBC), read-out: Activity
[12] = tested on: Bacillus subtilis; experiment: Inhibition of RNA synthesis in Bacillus subtilis assessed as incorporation of [3H]uridine at 4 ug/mL by LKB Betaplate scintillation counter relative to control; type: functional; parameters: scale not given: the % may be the effect or the level left
[13] = Toxicity in human RBC assessed as hemolysis at 32 ug/ml after 2 hrs; type: cell-based, Erythrocyte; conditions: red blood cells (RBC), read-out: Activity
[14] = tested on: Bacillus subtilis; experiment: Inhibition of DNA synthesis in Bacillus subtilis assessed as [3H]thymidine uptake at 8 ug/mL by LKB Betaplate scintillation counter relative to control; type: functional; parameters: scale not given: the % may be the effect or the level left
[15] = tested on: Bacillus subtilis; experiment: Antimicrobial activity against Bacillus subtilis 327 after 18 hrs by microbroth dilution method; type: functional
[16] = tested on: Escherichia coli; experiment: Antimicrobial activity against Escherichia coli imp 389 after 18 hrs by microbroth dilution method; type: functional
[17] = tested on: Bacillus subtilis; experiment: Inhibition of RNA synthesis in Bacillus subtilis assessed as incorporation of [3H]uridine at 2 ug/mL by LKB Betaplate scintillation counter relative to control; type: functional; parameters: scale not given: the % may be the effect or the level left
[18] = tested on: Bacillus subtilis; experiment: Inhibition of DNA synthesis in Bacillus subtilis assessed as incorporation of [3H]thymidine at 4 ug/mL by LKB Betaplate scintillation counter relative to control; type: functional; parameters: scale not given: the % may be the effect or the level left
[19] = tested on: Bacillus subtilis; experiment: Inhibition of protein synthesis in Bacillus subtilis assessed as incorporation of [3H]amino acid at 4 ug/mL by LKB Betaplate scintillation counter relative to control; type: functional; parameters: scale not given: the % may be the effect or the level left
[20] = tested on: Bacillus subtilis; experiment: Inhibition of protein synthesis in Bacillus subtilis assessed as incorporation of [3H]amino acid at 1 ug/mL by LKB Betaplate scintillation counter relative to control; type: functional; parameters: scale not given: the % may be the effect or the level left
[21] = tested on: Bacillus subtilis; experiment: Inhibition of protein synthesis in Bacillus subtilis assessed as [3H]amino acid uptake at 2 ug/mL by LKB Betaplate scintillation counter relative to control; type: functional; parameters: scale not given: the % may be the effect or the level left
[22] = tested on: Bacillus subtilis; experiment: Inhibition of DNA synthesis in Bacillus subtilis assessed as [3H]thymidine uptake at 1 ug/mL by LKB Betaplate scintillation counter relative to control; type: functional; parameters: scale not given: the % may be the effect or the level left
[23] = tested on: Staphylococcus aureus; experiment: Antimicrobial activity against methicillin-resistant Staphylococcus aureus 310 after 18 hrs by microbroth dilution method; type: functional
[24] = tested on: Bacillus subtilis; experiment: Inhibition of DNA synthesis in Bacillus subtilis assessed as [3H]thymidine uptake at 2 ug/mL by LKB Betaplate scintillation counter relative to control; type: functional; parameters: scale not given: the % may be the effect or the level left
[25] = tested on: Bacillus subtilis; experiment: Inhibition of protein synthesis in Bacillus subtilis assessed as incorporation of [3H]amino acid at 2 ug/mL by LKB Betaplate scintillation counter relative to control; type: functional; parameters: scale not given: the % may be the effect or the level left
[26] = tested on: Bacillus subtilis; experiment: Inhibition of DNA synthesis in Bacillus subtilis assessed as incorporation of [3H]thymidine at 8 ug/mL by LKB Betaplate scintillation counter relative to control; type: functional; parameters: scale not given: the % may be the effect or the level left
[27] = tested on: Bacillus subtilis; experiment: Inhibition of RNA synthesis in Bacillus subtilis assessed as incorporation of [3H]uridine at 8 ug/mL by LKB Betaplate scintillation counter relative to control; type: functional; parameters: scale not given: the % may be the effect or the level left
[28] = tested on: Bacillus subtilis; experiment: Inhibition of DNA synthesis in Bacillus subtilis assessed as incorporation of [3H]thymidine at 1 ug/mL by LKB Betaplate scintillation counter relative to control; type: functional; parameters: scale not given: the % may be the effect or the level left
[29] = Toxicity in human RBC assessed as hemolysis at 128 ug/ml after 2 hrs; type: cell-based, Erythrocyte; conditions: red blood cells (RBC), read-out: Activity
[30] = tested on: Bacillus subtilis; experiment: Inhibition of protein synthesis in Bacillus subtilis assessed as [3H]amino acid uptake at 4 ug/mL by LKB Betaplate scintillation counter relative to control; type: functional; parameters: scale not given: the % may be the effect or the level left
[31] = tested on: Bacillus subtilis; experiment: Inhibition of DNA synthesis in Bacillus subtilis assessed as incorporation of [3H]thymidine at 2 ug/mL by LKB Betaplate scintillation counter relative to control; type: functional; parameters: scale not given: the % may be the effect or the level left
[32] = Toxicity in human RBC assessed as hemolysis at 8 ug/ml after 2 hrs; type: cell-based, Erythrocyte; conditions: red blood cells (RBC), read-out: Activity
[33] = tested on: Bacillus subtilis; experiment: Inhibition of RNA synthesis in Bacillus subtilis assessed as [3H]uridine uptake at 4 ug/mL by LKB Betaplate scintillation counter relative to control; type: functional; parameters: scale not given: the % may be the effect or the level left
[34] = tested on: Bacillus subtilis; experiment: Inhibition of protein synthesis in Bacillus subtilis assessed as incorporation of [3H]amino acid at 8 ug/mL by LKB Betaplate scintillation counter relative to control; type: functional; parameters: scale not given: the % may be the effect or the level left
[35] = tested on: Bacillus subtilis; experiment: Inhibition of protein synthesis in Bacillus subtilis assessed as [3H]amino acid uptake at 1 ug/mL by LKB Betaplate scintillation counter relative to control; type: functional; parameters: scale not given: the % may be the effect or the level left
[36] = Toxicity in human RBC assessed as hemolysis at 0.5 ug/ml after 2 hrs; type: cell-based, Erythrocyte; conditions: red blood cells (RBC), read-out: Activity
[37] = tested on: Bacillus subtilis; experiment: Inhibition of RNA synthesis in Bacillus subtilis assessed as incorporation of [3H]uridine at 1 ug/mL by LKB Betaplate scintillation counter relative to control; type: functional; parameters: scale not given: the % may be the effect or the level left
[38] = tested on: Bacillus subtilis; experiment: Inhibition of RNA synthesis in Bacillus subtilis assessed as [3H]uridine uptake at 8 ug/mL by LKB Betaplate scintillation counter relative to control; type: functional; parameters: scale not given: the % may be the effect or the level left
[39] = tested on: Bacillus subtilis; experiment: Inhibition of DNA synthesis in Bacillus subtilis assessed as incorporation of [3H]thymidine at 0.25 ug/mL by LKB Betaplate scintillation counter relative to control; type: functional; parameters: scale not given: the % may be the effect or the level left
[40] = tested on: Bacillus subtilis; experiment: Inhibition of DNA synthesis in Bacillus subtilis assessed as [3H]thymidine uptake at 0.25 ug/mL by LKB Betaplate scintillation counter relative to control; type: functional; parameters: scale not given: the % may be the effect or the level left
[41] = tested on: Bacillus subtilis; experiment: Inhibition of protein synthesis in Bacillus subtilis assessed as incorporation of [3H]amino acid at 0.25 ug/mL by LKB Betaplate scintillation counter relative to control; type: functional; parameters: scale not given: the % may be the effect or the level left
[42] = tested on: Bacillus subtilis; experiment: Inhibition of RNA synthesis in Bacillus subtilis assessed as [3H]uridine uptake at 0.25 ug/mL by LKB Betaplate scintillation counter relative to control; type: functional; parameters: scale not given: the % may be the effect or the level left
[43] = tested on: Bacillus subtilis; experiment: Inhibition of protein synthesis in Bacillus subtilis assessed as [3H]amino acid uptake at 0.25 ug/mL by LKB Betaplate scintillation counter relative to control; type: functional; parameters: scale not given: the % may be the effect or the level left
[44] = tested on: Bacillus subtilis; experiment: Inhibition of RNA synthesis in Bacillus subtilis assessed as incorporation of [3H]uridine at 0.25 ug/mL by LKB Betaplate scintillation counter relative to control; type: functional; parameters: scale not given: the % may be the effect or the level left
[45] = Ratio of LD50 for CD1 mouse to ED50 for Staphylococcus aureus

`C=C[C@]1(C)CC=C2C(CC[C@@H]3[C@](C)(CO)CCC[C@@]23C)C1` (stereo partly specified) showed an Activity [1] of 1%, an MIC [2] of 2 µg/mL (≈ 6.93 µM) and a hemolysis at 2 h, 64 ug/ml [3] of 80.2%. It also gave a hemolysis at 2 h, 2 ug/ml [4] of 0.45%, an Activity [5] of 1% and a hemolysis at 2 h, 1 ug/ml [6] of 0.08%. The Activity [7] was 1%, the Activity [8] was 1% and the ED50 [9] was over 64 mg/kg. For the same molecule, the hemolysis at 2 h, 16 ug/ml [10] was 14.8%, the hemolysis at 2 h, 4 ug/ml [11] was 0.3% and the Activity [12] was 0%. For the same molecule, the hemolysis at 2 h, 32 ug/ml [13] was 71.7%, the Activity [14] was 1% and the MIC [15] was 4 µg/mL (≈ 13.9 µM). For the same molecule, the MIC [16] was over 128 µg/mL, the Activity [17] was 1% and the Activity [18] was 1%. It also gave an Activity [19] of 2%, an Activity [20] of 36% and an Activity [21] of 1%. It also gave an Activity [22] of 13%, an MIC [23] of 2 µg/mL (≈ 6.93 µM) and an Activity [24] of 2%. It also gave an Activity [25] of 4%, an Activity [26] of 1% and an Activity [27] of 0%. For the same molecule, the Activity [28] was 20%, the hemolysis at 2 h, 128 ug/ml [29] was 88.1% and the Activity [30] was 1%. The Activity [31] was 2%, the hemolysis at 2 h, 8 ug/ml [32] was 3.32% and the Activity [33] was 0%. The Activity [34] was 2%, the Activity [35] was 2% and the hemolysis at 2 h, 0.5 ug/ml [36] was 0.3%. For the same molecule, the Activity [37] was 2% and the Activity [38] was 0%.

Work on `CC(C)c1ccc2c(c1)CC[C@H]1[C@](C)(C(=O)O)CCC[C@]21C` [DEHYDROABIETIC ACID] yielded an MIC [2] of 16 µg/mL (≈ 53.3 µM), an MIC [15] of 32 µg/mL (≈ 107 µM) and an MIC [16] of 128 µg/mL (≈ 426 µM). It also gave an MIC [23] of 32 µg/mL (≈ 107 µM).

`CC1(C)CC[C@]2(C(=O)O)CC[C@]3(C)C(=CC[C@@H]4[C@@]5(C)CC[C@@H](O)C(C)(C)[C@@H]5CC[C@]43C)[C@@H]2C1` showed an MIC [2] of over 128 µg/mL, an MIC [15] of 64 µg/mL (≈ 140 µM) and an MIC [16] of over 128 µg/mL.

In the case of `C[C@H]1[C@H](C)CC[C@]2(C(=O)O)CC[C@]3(C)C(=CC[C@@H]4[C@@]5(C)CC[C@@H](O)C(C)(C)[C@@H]5CC[C@]43C)[C@H]12`, the MIC [2] is reported as over 128 µg/mL, the MIC [15] is reported as 64 µg/mL (≈ 140 µM) and the MIC [16] is reported as over 128 µg/mL.

With `O=C(O)c1cn(C2CC2)c2cc(N3CCNCC3)c(F)cc2c1=O` [CIPROFLOXACIN] the Activity [39] was 61%, the Activity [40] was 73% and the Activity [41] was 94%. It also gave an Activity [42] of 100%, an Activity [43] of 104% and an Activity [44] of 94%.

`CN[C@H](CC(C)C)C(=O)N[C@H]1C(=O)N[C@@H](CC(N)=O)C(=O)N[C@H]2C(=O)N[C@H]3C(=O)N[C@H](C(=O)N[C@H](C(=O)O)c4cc(O)cc(O)c4-c4cc3ccc4O)[C@H](O)c3ccc(c(Cl)c3)Oc3cc2cc(c3O[C@@H]2O[C@H](CO)[C@@H](O)[C@H](O)[C@H]2O[C@H]2C[C@](C)(N)[C@H](O)[C@H](C)O2)Oc2ccc(cc2Cl)[C@H]1O` [VANCOMYCIN] gave an ED50 [9] of 1 mg/kg and a Ratio LD50/ED50 [45] of over 1024.
